Literature values in article PMC9099121, “Population pharmacokinetic and exposure‐response analyses from ALTA‐1L: Model‐based analyses supporting the brigatinib dose in ALK‐positive NSCLC” (Clinical and Translational Science, 2022).

Tested on: ALK-rearranged advanced NSCLC
Parameters: method as in PMID 31020351
Conditions: time-dependent exposure metric; 95% CI: 0.92–1.17; nonsignificant; cited from earlier work

In the case of Cc1cc(Nc2ncc(Cl)c(Nc3ccccc3S(=O)(=O)C(C)C)n2)c(OC(C)C)cc1C1CCNCC1 [ceritinib], the “HR, exposure versus risk of disease progression” value is listed as 1.04.
